From PubChem BioAssay AID1963830 (Molecular Pharmacology Branch, DTP, NCI, 2024)
Several values for one entry are separate records, joined by “and”; a condition that tells them apart may be missing. Equal values may be shown once.

Tested on: 922993-354-T-J3-PDC complex spheroid viability
Experiment: Anticancer human tumor 922993-354-T-J3-PDC patient-derived endometrial carcinoma cell line growth inhibition [POLQ]
Conditions: for viability, T/C: stronger effect = lower value
Method: Multicellular complex tumor spheroid response to Polymerase (POL) inhibitors (novobiocin, ART-558, RP6685) in combination with a variety of drugs and investigational agents in selected tumor cell lines
The POL inhibitors (novobiocin, ART-558, and RP6685) were evaluated both individually and in combination with standard of care and investigational anticancer small molecules within a complex spheroid model of solid tumors. . Complex spheroids include a stromal component modeled by human endothelial cells (HUVEC) and fibroblasts modeled by human mesenchymal stem cells (MSCs). The concentration ranges selected for each drug and investigational agent were based upon clinically achievable concentrations if the clinical Cmax of the agent was known.
Compounds. The drugs and investigational agents: novobiocin (NSC847541), ART-558 (NSC835418), RP-6685 (NSC848927), peposertib (NSC802822), ceralasertib (NSC780249), elimusertib (NSC800525), camonsertib (NSC841442), AZD-1390 (NSC803789), olaparib (NSC753686), talazoparib (NSC767125), rucaparib (NSC756644), sotorasib (NSC818433), MRTX-1133 (NSC836407), SN-38 (NSC673596), topotecan (NSC609699), epotoside (NSC141540), doxorubicin (NSC123127), gemcitabine (NSC613327), 5-fluorouracil (NSC19893), paclitaxel (NSC125973), vemurafenib (NSC761431), MSA-2 (NSC828583), SN-011 (NSC837082), adavosertib (NSC754352), prexasertib (NSC758257), carboplatin (NSC241240) and oxaliplatin (NSC266046), were obtained from the National Cancer Institute (NCI) Developmental Therapeutics Program Chemical Repository (21). The FDA-approved anticancer drug set is available from the Developmental Therapeutics Program at https://dtp.cancer.gov/organization/dscb/obtaining/. […] The stock solutions were prepared in dimethyl sulfoxide (DMSO, Sigma-Aldrich, St. Louis, MO, cat. D2650), except for the platinum compounds which were prepared in saline (Quality Biological, Gaithersburg, MD, cat. 114-055-101), at 800-fold the tested concentration and stored at -70 degrees C prior to their use. All drugs and investigational agents were tested over a range starting from a high concentration at or near the clinical Cmax and decreasing in half-log increments. If the clinical Cmax for an agent had not been determined, the highest concentration tested was 10 microM, except for SN-38, which was tested at a high concentration of 1 microM.
Cell Culture. All cells were maintained in an incubator at 37 degrees C and 5% CO2 with 95% humidity. The PDC lines were cultured according to standard operating procedures established by the NCI PDMR (https://pdmr.cancer.gov). Table 3 of the manuscript, lists the cell lines along with the number of the three cell types plated to form the mct-spheroids and media for tumor cell growth. After thawing, all PDC lines, except 997537-175-T-J1-PDC and 415267-285-R-J2-PDC, were cultured in Matrigel-coated flasks prepared with a working solution of 1X Ham's F-12 nutrient mix, without supplementation (Thermo Fisher Scientific, cat. 11765054), 100 U/mL penicillin-streptomycin (Thermo Fisher Scientific, cat. 15140122), and 2.5% Matrigel (Corning Inc., Corning, NY, cat. 354248) for the first three passages. The two PDC lines 997537-175-T-J1-PDC and 415267-285-R-J2-PDC were cultured on uncoated flasks. The 857933-349-R-J2-PDC line was cultured in 6C/Colon 1B media containing advanced DMEM/F-12 (Thermo Fisher Scientific, cat. 12634028), 10 mM HEPES (Thermo Fisher Scientific, cat. 15630080), 1X GlutaMAX supplement (Thermo Fisher Scientific, cat. 35050061), 0.1 mg/mL primocin (InvivoGen, San Diego, CA, cat. ant-pm-2), 10% defined fetal bovine serum, heat inactivated (HyClone Laboratories Inc., Logan, UT, cat. SH30070.03HI), 50% L-WRN conditioned media (ATCC, cat. CRL-3276), 1.25 mM N-Acetyl-L-cysteine (Sigma-Aldrich, cat. A9165), 10 mM nicotinamide (Sigma-Aldrich, cat. N0636), 1X B-27 supplement (Thermo Fisher Scientific, cat. 17504044), 1X N-2 supplement (Thermo Fisher Scientific, cat. […]
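Also: spheroids exposed to the agents for one week.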
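For viability, T/C in this document: 100% = DMSO vehicle control wells.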

With `CC(C)n1c(=O)n(C)c2cnc3cc(F)c(-c4ccc(OCCCN5CCCCC5)nc4)cc3c21` + Nc1ccc(C#CCN(C(=O)Cc2ncc(C(F)(F)F)cc2C(F)(F)F)c2ccc(F)cc2)nn1 as the compound, how does the IC50 (curve of first compound, second compound 0.0316 µM) read?
Its IC50 is > 10 µM.

And the IC50 (curve of first compound, second compound 0.1 µM)?
Its IC50 is > 10 µM.

What about the IC50 (curve of first compound, second compound 0.316 µM) of the same compound?
The IC50 was > 10 µM.

And the IC50 (curve of first compound, second compound 1 µM)?
Its IC50 is > 10 µM.

What about the IC50 (curve of first compound, second compound 3.16 µM) of the same compound?
The IC50 was > 10 µM.

What about the IC50 (curve of first compound, second compound 10 µM) of the same compound?
The IC50 was > 10 µM.

And the viability, T/C (second compound 0.0316 µM, first compound 0.0316 µM)?
Its viability, T/C is 101%.

What about the viability, T/C (second compound 0.0316 µM, first compound 0.1 µM) of the same compound?
The viability, T/C was 99%.

What about the viability, T/C (second compound 0.0316 µM, first compound 0.316 µM) of the same compound?
The viability, T/C was 99.1%.

What about the viability, T/C (second compound 0.0316 µM, first compound 1 µM) of the same compound?
The viability, T/C was 95.2%.

What about the viability, T/C (second compound 0.0316 µM, first compound 3.16 µM) of the same compound?
Its viability, T/C is 93.9%.

What about the viability, T/C (second compound 0.0316 µM, first compound 10 µM) of the same compound?
The viability, T/C was 86.7%.

And the viability, T/C (second compound 0.1 µM, first compound 0.0316 µM)?
The viability, T/C was 107%.

And the viability, T/C (second compound 0.1 µM, first compound 0.1 µM)?
The viability, T/C was 103%.

And the viability, T/C (second compound 0.1 µM, first compound 0.316 µM)?
The viability, T/C was 104%.

What about the viability, T/C (second compound 0.1 µM, first compound 1 µM) of the same compound?
The viability, T/C was 95.3%.

And the viability, T/C (second compound 0.1 µM, first compound 3.16 µM)?
The viability, T/C was 86.7%.

What about the viability, T/C (second compound 0.1 µM, first compound 10 µM) of the same compound?
Its viability, T/C is 84.7%.

What about the viability, T/C (second compound 0.316 µM, first compound 0.0316 µM) of the same compound?
The viability, T/C was 106%.

What about the viability, T/C (second compound 0.316 µM, first compound 0.1 µM) of the same compound?
Its viability, T/C is 107%.

What about the viability, T/C (second compound 0.316 µM, first compound 0.316 µM) of the same compound?
Its viability, T/C is 93.9%.

What about the viability, T/C (second compound 0.316 µM, first compound 1 µM) of the same compound?
Its viability, T/C is 101%.

And the viability, T/C (second compound 0.316 µM, first compound 3.16 µM)?
Its viability, T/C is 93.9%.

What about the viability, T/C (second compound 0.316 µM, first compound 10 µM) of the same compound?
Its viability, T/C is 80.1%.

And the viability, T/C (second compound 1 µM, first compound 0.0316 µM)?
The viability, T/C was 103%.

What about the viability, T/C (second compound 1 µM, first compound 0.1 µM) of the same compound?
The viability, T/C was 95.9%.

And the viability, T/C (second compound 1 µM, first compound 0.316 µM)?
The viability, T/C was 99.6%.

And the viability, T/C (second compound 1 µM, first compound 1 µM)?
Its viability, T/C is 98.9%.

What about the viability, T/C (second compound 1 µM, first compound 3.16 µM) of the same compound?
Its viability, T/C is 94%.

What about the viability, T/C (second compound 1 µM, first compound 10 µM) of the same compound?
Its viability, T/C is 80.4%.

And the viability, T/C (second compound 3.16 µM, first compound 0.0316 µM)?
The viability, T/C was 96.9%.

And the viability, T/C (second compound 3.16 µM, first compound 0.1 µM)?
Its viability, T/C is 99.4%.

What about the viability, T/C (second compound 3.16 µM, first compound 0.316 µM) of the same compound?
Its viability, T/C is 94.6%.

And the viability, T/C (second compound 3.16 µM, first compound 1 µM)?
Its viability, T/C is 98.1%.

And the viability, T/C (second compound 3.16 µM, first compound 3.16 µM)?
Its viability, T/C is 88.6%.

What about the viability, T/C (second compound 3.16 µM, first compound 10 µM) of the same compound?
The viability, T/C was 84.1%.

And the viability, T/C (second compound 10 µM, first compound 0.0316 µM)?
The viability, T/C was 98.8%.

What about the viability, T/C (second compound 10 µM, first compound 0.1 µM) of the same compound?
The viability, T/C was 92.8%.

What about the viability, T/C (second compound 10 µM, first compound 0.316 µM) of the same compound?
Its viability, T/C is 94.9%.

And the viability, T/C (second compound 10 µM, first compound 1 µM)?
Its viability, T/C is 90.6%.

What about the viability, T/C (second compound 10 µM, first compound 3.16 µM) of the same compound?
The viability, T/C was 92.5%.

What about the viability, T/C (second compound 10 µM, first compound 10 µM) of the same compound?
Its viability, T/C is 82.1%.

For `COc1cc2cc(C(=O)CCC(=O)O)sc2cc1OC`, which viability, T/C (compound 0.0316 µM) is on record?
The viability, T/C was 106% (2×) and 103%.

What about the viability, T/C (compound 0.1 µM) of the same compound?
The viability, T/C was 100% and 98.9% and 101%.

What about the viability, T/C (compound 0.316 µM) of the same compound?
Its viability, T/C is 108% and 102% and 98.9%.

And the viability, T/C (compound 1 µM)?
The viability, T/C was 99.2% and 104% (2×).

And the viability, T/C (compound 3.16 µM)?
The viability, T/C was 106% and 105% and 116%.

And the viability, T/C (compound 10 µM)?
Its viability, T/C is 85.2% and 83.3% and 64.8%.

And the IC50 (curve of compound)?
Its IC50 is > 10 µM.

What does the source list for `O=C(c1cc(Cc2n[nH]c(=O)c3ccccc23)ccc1F)N1CCN(C(=O)C2CC2)CC1`?
viability, T/C (compound 0.0316 µM): 107% and 111% and 103%; viability, T/C (compound 0.1 µM): 100% and 97.4% and 101%; viability, T/C (compound 0.316 µM): 95.3% and 93.3% and 102%; viability, T/C (compound 1 µM): 106% and 94% and 101%; viability, T/C (compound 3.16 µM): 92% and 94% and 104%; viability, T/C (compound 10 µM): 96.9% and 99.4% and 94.8%; IC50 (curve of compound): > 10 µM

`CC(=O)O[C@H]1C(=O)[C@@]2(C)[C@H]([C@H](OC(=O)c3ccccc3)[C@]3(O)C[C@H](OC(=O)[C@H](O)[C@@H](NC(=O)c4ccccc4)c4ccccc4)C(C)=C1C3(C)C)[C@]1(OC(C)=O)CO[C@@H]1C[C@@H]2O` was tested. Which viability, T/C (compound 0.00949 µM) did it give?
Its viability, T/C is 105% and 103% and 101%.

What about the viability, T/C (compound 0.03 µM) of the same compound?
Its viability, T/C is 99% and 101% and 96.3%.

What about the viability, T/C (compound 0.0949 µM) of the same compound?
Its viability, T/C is 99.6% and 106% and 95.9%.

And the viability, T/C (compound 0.3 µM)?
Its viability, T/C is 105% (2×) and 108%.

And the viability, T/C (compound 0.949 µM)?
Its viability, T/C is 101% and 95.8% and 89.9%.

And the viability, T/C (compound 3 µM)?
The viability, T/C was 74.1% and 74.5% and 52%.

What about the IC50 (curve of compound) of the same compound?
Its IC50 is > 3 µM.

Which viability, T/C (compound 0.0316 µM) does the source give for `C=CC(=O)N1CCN(c2nc(=O)n(-c3c(C)ccnc3C(C)C)c3nc(-c4c(O)cccc4F)c(F)cc23)C(C)C1` (stereo not given) here?
Its viability, T/C is 107% and 106% and 97.9%.

What about the viability, T/C (compound 0.1 µM) of the same compound?
The viability, T/C was 93.5% and 101% and 94.9%.

And the viability, T/C (compound 0.316 µM)?
Its viability, T/C is 96% and 106% and 92.7%.

What about the viability, T/C (compound 1 µM) of the same compound?
The viability, T/C was 104% (2×) and 107%.

And the viability, T/C (compound 3.16 µM)?
Its viability, T/C is 105% and 104% and 97.4%.

And the viability, T/C (compound 10 µM)?
The viability, T/C was 98.8% and 106% and 75%.

And the IC50 (curve of compound)?
Its IC50 is > 10 µM.
